Patent US5698547A, “Cephalosporin antibiotics” (Microcide Pharmaceuticals, Inc., priority 1995, dated 1997)
Converted amounts (≈) assume the structure as drawn.

system: S. aureus Col (Meth^R) (lac^-); assay: MIC by agar dilution, S. aureus Col (Meth^R) (lac^-); type: cell-based; conditions: Staphylococcus aureus; agar dilution; S. aureus Col (Meth^R) (lac^-); read-out: MIC
Procedure: The compounds of the invention were evaluated against several β-lactamresistant bacteria strains by determining the minimum inhibitory concentration (MIC, μg/ml) of each compound with respect to each strain. The MIC, the lowest concentration of antibiotic which inhibits growth of the test organism, was determined by the agar dilution method.
To determine the MIC for bacterial isolates, the test compound was incorporated in a series of two-fold dilutions into liquified Mueller-Hinton agar. Upon solidification, a number of different bacterial strains were spot inoculated with a replicating device onto the agar surface. […] The procedures used in these studies have been standardized by the National Committee for Clinical Laboratory Standards (NCCLS), as per the NCCLS publication entitled METHODS FOR DILUTION ANTIMICROBIAL SUSCEPTIBILITY TESTS (1991), which is incorporated herein by reference.
Aliquots of antimicrobial agents were prepared in phosphate buffered saline (PBS) at pH 7.2. Tween 20 or DMSO was used as a solubilizing vehicle as needed. Standard methods of vortexing, sonicating and gentle heat were used to facilitate solubilizing the test agent. Typically, the concentration of the stock solution was 10× that of the highest drug concentration tested. A 1.28 mg/mL stock solution was used with a subsequent highest working concentration of 128 μg/mL. Serial two-fold dilutions were done through ≤0.25 μg/mL. Each drug level was tested in duplicate. Two-fold drug dilutions were done in sterile 50 mL tubes with a final drug volume of 5 mL. Upon the addition of 45 mL of molten agar, a 10-fold dilution resulted. Two, 25 mL. plates were then poured into 15×150 mm square Petri plates with grids and allowed to harden.
A control plate with a reference drug, either cefotaxime, vancomycin or imipenem, was used as the positive growth control. Stock concentrations of reference antibiotics were prepared and frozen at -80° C. Upon preparation, the control plates were sealed and stored in the refrigerator for up to 1 week prior to use; however, imipenem control plates had to be prepared just prior to use. All test plates were used within 24 hours of preparation.
Satisfactory results were obtained where the inoculum contained about 10^4 colony forming units (cfu) ±0.5 logs. Starting with pure cultures of the test isolates on agar plates, a few isolated colonies were transferred to a tube of nutrient broth and allowed to grow 4-6 hours at 35°-36° C. to reach log-phase growth. Dropwise addition of the broth culture to PBS was done to match a 0.5 McFarland turbidity standard equal to 10^8 cfu/mL. This was further diluted ten-fold in PBS to reach a working inoculum concentration of 10^7 cfu/mL. When 1 μL of the working inoculum was applied to the agar surface a concentration of about 10^4 cfu per spot was obtained.
Disposable sterile 1 μL loops were used to inoculate test plates, with each isolate in a designated grid on the agar plate. An alternate method of inoculation involved the use of a replica plater, a device with 48 steel pins allowing the simultaneous inoculation of multiple isolates. After the spots had dried, the plates were incubated at 35°-36° C. for 16-20 hours. Endpoints were assessed as the minimum inhibitory concentration (MIC) of antimicrobial agent.
The novel agents of this invention are notable for their enhanced activity against S. aureus Col and Enterococci (E. faecium and E. faecalis). The S. aureus Col strain is a high-level PBP2a producer, whereas S. aureus Col 8A, its isogenic partner, lacks PBP2a. […] Thus, the compounds of the present invention are effective against PBP2a-producing bacteria.

SMILES | MIC [µg/mL]
O=C(Cc1cccs1)N[C@@H]1C(=O)N2C(C(=O)O)=C(Sc3cc(Cl)ccc3Cl)CS[C@H]12 [Cmpd 26, (7R)-7-[(2-Thienylacetyl)amino]-3-(2,5-dichlorophenylthio)-3-cephem-4-carboxylic acid] | 0.5 (≈ 0.997 µM)
O=C(Cc1ccccc1)N[C@@H]1C(=O)N2C(C(=O)O)=C(Sc3ccccc3-c3ccco3)CS[C@H]12 [Cmpd 27, (7R)-7-[(Phenylacetyl)amino]-3-(2-(2-furyl)phenylthio)-3-cephem-4-carboxylic acid] | 1 (≈ 2.03 µM)
O=C(Cc1ccccc1)N[C@@H]1C(=O)N2C(C(=O)O)=C(Sc3ccc(Cl)cc3Cl)CS[C@H]12 [Cmpd 28, (7R)-7-[(Phenylacetyl)amino]-3-(2,4-dichlorophenylthio)-3-cephem-4-carboxylic acid] | 1 (≈ 2.02 µM)
COc1ccc(CC(=O)N[C@@H]2C(=O)N3C(C(=O)O)=C(Sc4ccccc4I)CS[C@H]23)cc1 [Cmpd 29, (7R)-7-[(p-Methoxyphenylacetyl)amino]-3-(o-iodophenylthio)-3-cephem-4-carboxylic acid] | 1 (≈ 1.72 µM)
O=C(COc1ccc(Cl)cc1)N[C@@H]1C(=O)N2C(C(=O)O)=C(Sc3ccccc3I)CS[C@H]12 [Cmpd 30, (7R)-7-[(p-Chlorophenoxyacetyl)amino]-3-(o-iodophenylthio)-3-cephem-4-carboxylic acid] | 0.5 (≈ 0.829 µM)
O=C(COc1ccc(Cl)cc1)N[C@@H]1C(=O)N2C(C(=O)O)=C(Sc3cc(Cl)ccc3Cl)CS[C@H]12 [Cmpd 31, (7R)-7-[(p-Chlorophenoxyacetyl)amino]-3-(2,5-dichlorophenylthio)-3-cephem-4-carboxylic acid] | 1 (≈ 1.83 µM)
COc1ccc(CC(=O)N[C@@H]2C(=O)N3C(C(=O)O)=C(Sc4cc(Cl)ccc4Cl)CS[C@H]23)cc1 [Cmpd 32, (7R)-7-[(p-Methoxyphenylacetyl)amino]-3-(2,5-dichlorophenylthio)-3-cephem-4-carboxylic acid] | 1 (≈ 1.9 µM)
O=C(Cc1ccccc1)N[C@@H]1C(=O)N2C(C(=O)O)=C(Sc3cc(F)ccc3Br)CS[C@H]12 [Cmpd 33, (7R)-7-[(Phenylacetyl)amino]-3-(2-bromo-5-fluorophenylthio)-3-cephem-4-carboxylic acid] | 1 (≈ 1.91 µM)
N#CCC(=O)N[C@@H]1C(=O)N2C(C(=O)O)=C(Sc3ccccc3-c3ccccc3)CS[C@H]12 [Cmpd 34, (7R)-7-[(Cyanoacetyl)amino]-3-(2-biphenylthio)-3-cephem-4-carboxylic acid] | 2 (≈ 4.43 µM)
O=C(CSc1ccccc1)N[C@@H]1C(=O)N2C(C(=O)O)=C(Sc3cc(Cl)ccc3Cl)CS[C@H]12 [Cmpd 35, (7R)-7-[(Phenylthioacetyl)amino]-3-(2,5-dichlorophenylthio)-3-cephem-4-carboxylic acid] | 0.5 (≈ 0.948 µM)
C=Cc1ccccc1SC1=C(C(=O)O)N2C(=O)[C@@H](NC(=O)Cc3ccccc3)[C@H]2SC1 [Cmpd 36, (7R)-7-[(Phenylacetyl)amino]-3-(2-vinylphenylthio)-3-cephem-4-carboxylic acid] | 2 (≈ 4.42 µM)
O=C(Cc1ccccc1)N[C@@H]1C(=O)N2C(C(=O)O)=C(Sc3ccccc3-c3cccs3)CS[C@H]12 [Cmpd 37, (7R)-7-[(Phenylacetyl)amino]-3-(2-(2-thienyl)phenylthio)-3-cephem-4-carboxylic acid] | 2 (≈ 3.93 µM)
O=C(Cc1ccccc1)N[C@@H]1C(=O)N2C(C(=O)O)=C(Sc3ccccc3CO)CS[C@H]12 [Cmpd 38, (7R)-7-[(Phenylacetyl)amino]-3-(2-hydroxymethylphenylthio)-3-cephem-4-carboxylic acid] | 4 (≈ 8.76 µM)
O=C(Cc1ccccc1)N[C@@H]1C(=O)N2C(C(=O)O)=C(Sc3ccc(Br)cc3Br)CS[C@H]12 [Cmpd 39, (7R)-7-[(Phenylacetyl)amino]-3-(2,4-dibromophenylthio)-3-cephem-4-carboxylic acid] | 0.5 (≈ 0.856 µM)
O=C(Cc1ccccc1)N[C@@H]1C(=O)N2C(C(=O)O)=C(Sc3ccc(C(F)(F)F)cc3)CS[C@H]12 [Cmpd 40, (7R)-7-[(Phenylacetyl)amino]-3-(4-trifluoromethylphenylthio)-3-cephem-4-carboxylic acid] | 4 (≈ 8.09 µM)
Nc1nc(/C(=N/O)C(=O)N[C@@H]2C(=O)N3C(C(=O)O)=C(Sc4ccccc4-c4ccccc4)CS[C@H]23)cs1 [Cmpd 42, (7R)-7-[(Z)-2-(aminothiazol-4-yl)-2-(hydroxyimino)acetamido]-3-(2-biphenylthio)-3-cephem-4-carboxylic acid] | 4 (≈ 7.22 µM)
COc1ccc(Cc2ccc(-c3ccccc3SC3=C(C(=O)O)N4C(=O)[C@@H](NC(=O)Cc5ccccc5)[C@H]4SC3)s2)cc1 [Cmpd 43, (7R)-7-[(Phenylacetyl)amino]-3-(2-(2-(4-methoxyphenylmethyl)thien-5-yl)phenylthio)-3-cephem-4-carboxylic acid] | 4 (≈ 6.36 µM)
CSc1ccccc1SC1=C(C(=O)O)N2C(=O)[C@@H](NC(=O)Cc3ccccc3)[C@H]2SC1 [Cmpd 44, (7R)-7-[(Phenylacetyl)amino]-3-(2-methylthiophenylthio)-3-cephem-4-carboxylic acid] | 2 (≈ 4.23 µM)
Cn1cc[n+](Cc2ccc(-c3ccccc3SC3=C(C(=O)[O-])N4C(=O)[C@@H](NC(=O)Cc5ccccc5)[C@H]4SC3)s2)c1 [Cmpd 45, (7R)-7-[(Phenylacetyl)amino]-3-(2-(2-(N-methylimidazoliummethyl)thien-5-yl)phenylthio)-3-cephem-4-carboxylic acid] | 4 (≈ 6.64 µM)
CC(C)(C)c1ccccc1SC1=C(C(=O)O)N2C(=O)[C@@H](NC(=O)Cc3ccccc3)[C@H]2SC1 [Cmpd 46, (7R)-7-[(Phenylacetyl)amino]-3-(2-tert-butylphenylthio)-3-cephem-4-carboxylic acid] | 1 (≈ 2.07 µM)
CC(C)Oc1ccccc1SC1=C(C(=O)O)N2C(=O)[C@@H](NC(=O)Cc3ccccc3)[C@H]2SC1 [Cmpd 47, (7R)-7-[(Phenylacetyl)amino]-3-(2-isopropyloxyphenylthio)-3-cephem-4-carboxylic acid] | 1 (≈ 2.06 µM)
Cn1cc[n+](Cc2ccoc2-c2ccccc2SC2=C(C(=O)[O-])N3C(=O)[C@@H](NC(=O)Cc4ccccc4)[C@H]3SC2)c1 [Cmpd 48, (7R)-7-[(Phenylacetyl)amino]-3-(2-(3-(N-methylimidazoliummethyl)furan-2-yl)phenylthio)-3-cephem-4-carboxylic acid] | 4 (≈ 6.82 µM)
N#Cc1ccc(SC2=C(C(=O)O)N3C(=O)[C@@H](NC(=O)Cc4ccccc4)[C@H]3SC2)c([N+](=O)[O-])c1 [Cmpd 49, (7R)-7-[(Phenylacetyl)amino]-3-(4-cyano-2-nitrophenylthio)-3-cephem-4-carboxylic acid] | 4 (≈ 8.06 µM)
O=Cc1ccccc1SC1=C(C(=O)O)N2C(=O)[C@@H](NC(=O)Cc3ccccc3)[C@H]2SC1 [Cmpd 50, (7R)-7-[(Phenylacetyl)amino]-3-(2-formylphenylthio)-3-cephem-4-carboxylic acid] | 2 (≈ 4.4 µM)
N#Cc1ccc(SC2=C(C(=O)O)N3C(=O)[C@@H](NC(=O)Cc4ccccc4)[C@H]3SC2)c(C#N)c1 [Cmpd 51, (7R)-7-[(Phenylacetyl)amino]-3-(2,4-dicyanophenylthio)-3-cephem-4-carboxylic acid] | 4 (≈ 8.39 µM)
N#CCC(=O)N[C@@H]1C(=O)N2C(C(=O)O)=C(Sc3ccccc3C#N)CS[C@H]12 [Cmpd 52, (7R)-7-[(Cyanoacetyl)amino]-3-(2-cyanophenylthio)-3-cephem-4-carboxylic acid] | 4 (≈ 9.99 µM)
N#Cc1ccccc1SC1=C(C(=O)O)N2C(=O)[C@@H](NC(=O)/C(=N\OC3CCCC3)c3csc(N)n3)[C@H]2SC1 [Cmpd 53, (7R)-7-[(Z)-2-(aminothiazol-4-yl)-2-(cyclopentyloxyimino)acetamido]-3-(2-cyanophenylthio)-3-cephem-4-carboxylic acid] | 4 (≈ 7.01 µM)
O=C(Cc1ccccc1)N[C@@H]1C(=O)N2C(C(=O)O)=C(Sc3cccc4ccccc34)CS[C@H]12 [Cmpd 54, (7R)-7-[(Phenylacetyl)amino]-3-(1-naphthalenylthio)-3-cephem-4-carboxylic acid] | 1 (≈ 2.1 µM)
